Data reported in article PMC11986975, “A Cdk5 inhibitor restores cognitive function and alleviates type 2 diabetes in mice” (iScience, 2025).

Key:
Cdk5/p25 = Cdk5/p25 (Homo sapiens, UniProt Q00535); assay: Cdk5 kinase assay (ADP-Glo) with Cdk5/p25 complex; assay type: biochemical; conditions: 10 μM ATP, histone substrate, inhibitor 0-100 nM
Protocol: The test tube Cdk5 Kinase assay was performed utilizing Cdk5/p35 and Cdk5/p25 complexes as kinases, following the modified procedure outlined in a previous study,[52] using a Promega ADP-GloTM Kinase Assay kit. The reaction was carried out with 10 μM ATP and 2 μg of histone as the substrate for Cdk5 complexes. To study the inhibition patterns, 19 Cdk5 inhibitors (BLINK1-19) identified through molecular docking were added to the Cdk5 kinase reaction in increasing concentrations ranging from 0 to 100 nM. The IC50 (half-maximal inhibitory concentration) values of all the inhibitors were calculated based on Log(inhibitor) vs. normalized response using GraphPad software.

Cdk1/CylY = assay: Specificity kinase assay, Cdk1 with cyclin Y; assay type: biochemical; conditions: inhibitor 0-100 nM; read-out: IC50, Cdk1 with activator cyclin Y
Description: To assess the specificity of inhibitors BLINK11 and BLINK15 against CDK5, we investigated their effects on different Cdks, i.e., Cdk1, Cdk2, and Cdk9 that share structural homology with CDK5. […] However, these IC50 values were higher than those observed for CDK5/p35 and CDK5/p25. […] Overall, BLINK11 and BLINK15 can selectively target CDK5 at lower concentrations. […]
IC50 of all the kinases for both BLINK11 and BLINK15 inhibitors.

[1] = LC-MS of brain lysate and serum after intraperitoneal injection in HFD mouse model; assay type: in vivo; conditions: C57BL/6J, ip, HFD mice, LC-MS peak area in brain lysate compared to serum
Protocol: To assess the BBB penetrability of BLINK11 and BLINK15 in the high-fat diet (HFD) mouse model, intraperitoneal injections were administered, and liquid chromatography-mass spectrometry (LC-MS) analysis was conducted on both brain lysate and serum samples (Figure 3). The LC-MS results depicted in Figures 3A and 3B showcase the peaks corresponding to the BLINK11 compound in the brain lysate and serum, respectively. Similarly, Figures 3C and 3D illustrate the peaks associated with the BLINK15 compound in the brain lysate and serum, respectively. […] These analyses provide a quantitative measure of the presence of the compounds in the respective samples. Furthermore, to ascertain the relative distribution of BLINK11 and BLINK15 in the brain compared to serum, the percentages of each compound present in the brain were calculated and plotted in a bar graph (Figure 3G). […]
Metabolites, comprising the entire spectrum within the lysate excluding proteins but inclusive of drugs, were extracted from plasma and brain tissue homogenate samples. […] Compounds were analyzed in these samples using a multiple reaction monitoring method (using parameters mentioned in Table S5) on a triple quadrupole hybrid ion trap mass spectrometer (QTRAP 6500+, SCIEX) coupled with an ExionLC UHPLC system (SCIEX). […] Relative quantification was performed using MultiQuantTM software v.3.0 (SCIEX). […]

HFD-fed mice = assay: Body weight in HFD-fed T2D mice; assay type: in vivo; conditions: i.p.
Protocol: The HFD-fed mice model received intraperitoneal injections of the compounds BLINK11 and BLINK15 at doses of 20 mg/kg/day and 40 mg/kg/day for a total of 20 days in the third month of HFD feeding. The body weight was measured at the beginning of the drug therapy, on day 0, and then again on days 10 and 20, as indicated in Figure 4A.
Two groups of four-week-old male C57BL/6J mice were established. One group (n = 8) was fed a standard laboratory mouse chow diet (Protein: 20% kcal, Carbohydrate: 70% kcal, Fat: 10% kcal), while the other group (n = 40) was placed on a HFD (Protein: 20% kcal, Carbohydrate: 20% kcal, Fat: 60% kcal).[23] Body weight, ITT, and GTT were assessed. Mice were treated with BLINK11 and BLINK15 inhibitors at 20 mg/kg and 40 mg/kg doses for 20 days. The study included six groups: Control, HFD, HFD_BLINK11_20, HFD_BLINK11_40, HFD_BLINK15_20, and HFD_BLINK15_40. […] The control used in the study are vehicle treated-control group (5% DMSO, 0.1% tween 20 and 1X PBS). The doses of 20 mg/kg and 40 mg/kg body weight were selected based on evidence from previous studies evaluating the efficacy and safety of similar kinase inhibitors.[45]^,[46]^,[47] […] The 40 mg/kg dose was selected to assess dose-dependent efficacy and represents the upper limit of tolerability based on pharmacokinetic and toxicity data.

Chain of Cdk1/CylY (P06493 whole entry): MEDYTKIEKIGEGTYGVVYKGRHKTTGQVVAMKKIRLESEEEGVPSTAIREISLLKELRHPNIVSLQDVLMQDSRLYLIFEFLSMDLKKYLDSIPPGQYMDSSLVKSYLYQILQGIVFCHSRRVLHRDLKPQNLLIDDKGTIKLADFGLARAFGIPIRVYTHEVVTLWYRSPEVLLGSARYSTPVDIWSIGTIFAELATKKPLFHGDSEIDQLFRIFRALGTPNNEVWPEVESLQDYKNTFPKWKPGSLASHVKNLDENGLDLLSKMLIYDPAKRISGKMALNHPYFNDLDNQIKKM
Chain of Cdk1/CylY (Q8ND76 2-341 partner): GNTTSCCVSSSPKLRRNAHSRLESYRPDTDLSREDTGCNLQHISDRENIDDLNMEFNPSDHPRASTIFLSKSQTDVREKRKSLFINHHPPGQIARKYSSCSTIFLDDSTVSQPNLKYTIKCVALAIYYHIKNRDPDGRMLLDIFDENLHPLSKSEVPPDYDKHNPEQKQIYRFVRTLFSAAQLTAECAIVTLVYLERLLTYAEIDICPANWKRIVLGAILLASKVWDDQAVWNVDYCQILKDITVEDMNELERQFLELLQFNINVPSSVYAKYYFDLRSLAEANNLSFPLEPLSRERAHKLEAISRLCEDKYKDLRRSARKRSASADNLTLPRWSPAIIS
Chain of Cdk5/p25 (Q00535 whole entry, species assumed): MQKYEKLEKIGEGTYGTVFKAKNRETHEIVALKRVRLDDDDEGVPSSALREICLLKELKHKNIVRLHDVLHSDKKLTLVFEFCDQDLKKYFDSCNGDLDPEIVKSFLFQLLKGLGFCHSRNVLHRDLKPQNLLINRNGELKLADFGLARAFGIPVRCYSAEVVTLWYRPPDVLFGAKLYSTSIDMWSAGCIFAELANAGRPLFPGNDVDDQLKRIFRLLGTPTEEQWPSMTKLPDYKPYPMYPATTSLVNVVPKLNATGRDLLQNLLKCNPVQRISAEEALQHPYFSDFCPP
Chain of Cdk5/p25 (Q15078 99-307 partner limits assumed, species assumed): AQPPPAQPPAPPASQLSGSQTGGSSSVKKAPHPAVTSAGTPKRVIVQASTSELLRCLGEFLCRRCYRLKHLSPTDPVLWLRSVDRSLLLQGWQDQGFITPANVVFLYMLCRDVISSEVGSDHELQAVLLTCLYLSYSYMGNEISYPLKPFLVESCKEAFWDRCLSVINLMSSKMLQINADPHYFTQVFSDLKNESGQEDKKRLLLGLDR

SMILES: O=C(COc1ccccc1C(=O)Nc1cccc(Cl)c1Cl)Nc1ccc(N2CCOCC2)c(Cl)c1 [BLINK11, 2-(2-((3-chloro-4-morpholinophenyl)amino)-2-oxoethoxy)-N-(2,3-dichlorophenyl)benzamide]
- IC50 (Cdk5/p25): 14.7 nM
- IC50 (Cdk1/CylY): 39.3 nM
- Kp [1]: 0.38
- Body weight gain caused by HFD (HFD-fed mice; both dosages 20 and 40 mg/kg/day, 20 days): rescued from the gain in body weight

SMILES: COc1ccc(C(=O)C[C@@]2(O)C(=O)N(Cc3ccccc3)c3ccc(Br)cc32)cc1[N+](=O)[O-] [BLINK15]
- IC50 (Cdk5/p25): 12.1 nM
- IC50 (Cdk1/CylY): 35.8 nM
- Kp [1]: 0.11
- Body weight gain caused by HFD (HFD-fed mice; 40 mg/kg/day, 20 days (only the higher dose)): significant recovery
